Reference: patent US10329309B2, “3-(3H-imidazo[4,5-B]pyridin-2-yl)-1H-pyrazolo[4,3-B]pyridines and therapeutic uses thereof” (Samumed, LLC, priority 2015, dated 2019)

Key:
Assay type in all cases: cell-based
SW480 colon cancer cells = test: Cell viability assay (CellTiter-Blue), four days; details: Homo sapiens, 96 h; for EC50: CellTiter-Blue cell viability; for inhibition at 10 µM: read-out: percent inhibition at 10 μM (given for EC50 of >10 μM)
Method in brief: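 Approximately 2×10^3 SW480 cells per well are seeded with compound (8 points, threefold steps, top 10 μM) and incubated four days at 37 °C. CellTiter-Blue is then added for about 3 h and fluorescence read. Non-linear regression gives EC50; for values beyond 10 μM, percent inhibition at that concentration is listed.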

[1] = tested on: Wnt activity (Sp5-Luc reporter, SW480 colon carcinoma cells); test: Screening assay for Wnt activity: Sp5-Luc reporter gene assay in SW480 cells; details: Homo sapiens; for inhibition at 10 µM: 10 μM compound, read-out: percent inhibition at 10 μM (given for EC50 of >10 μM); for EC50: overnight incubation, 10-point dose-response from 10 μM
Method in brief: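 SW480 cells stably carrying Sp5-Luc reporter (eight TCF/LEF sites) plated at 4,000/well in 1% FBS medium with compound (10-point 1:3 series from 10 μM, 0.1% DMSO) overnight at 37 °C. BrightGlo luminescence normalized to DMSO; EC50 by four-parameter fit, else % inhibition at 10 μM.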

IL-6 (THP-1 cells) = test: Inhibition of IL-6 in LPS-stimulated THP-1 monocytes (HTRF); details: Homo sapiens; for EC50: LPS 500 ng/mL, IL-6 by HTRF; for inhibition at 10 µM: LPS stimulated, IL-6, at 10 μM, read-out: percent inhibition at 10 μM (given for EC50 of >10 μM)
Method in brief: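 THP-1 cells, serum-starved in 1% FBS for 24 h, were pre-incubated 2 h with compound (10-point, 1:3 from 10 μM, 0.1% DMSO), then stimulated with 500 ng/mL LPS for 22 h at 37 °C. IL-6 was quantified by HTRF 665/620 ratio. EC50 was fitted from DMSO-normalized data; above 10 μM, % inhibition at 10 μM is given.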

EC50 (SW480 colon cancer cells) [µM] | EC50 [1] [µM] | EC50 (IL-6 (THP-1 cells)) [µM] | SMILES | inhibition at 10 µM (SW480 colon cancer cells) [%] | inhibition at 10 µM [1] [%] | inhibition at 10 µM (IL-6 (THP-1 cells)) [%]
> 10 | > 10 | > 10 | CN1CCN(c2ccnc3[nH]c(-c4n[nH]c5ccc(-c6cncc(NC(=O)C7CCCC7)c6)nc45)nc23)CC1 [Compound 246, N-(5-(3-(7-(4-Methylpiperazin-1-yl)-3H-imidazo[4,5-b]pyridin-2-yl)-1H-pyrazolo[4,3-b]pyridin-5-yl)pyridin-3-yl)cyclopentanecarboxamide] | 0 | 4.2 | 15.7
> 10 | > 10 | > 10 | CS(=O)(=O)NCc1cc(F)cc(-c2ccnc3[nH]c(-c4n[nH]c5ccc(-c6cncc(NC(=O)c7ccccc7)c6)nc45)nc23)c1 [Compound 487, N-(5-(3-(7-(3-Fluoro-5-(methylsulfonamidomethyl)phenyl)-3H-imidazo[4,5-b]pyridin-2-yl)-1H-pyrazolo[4,3-b]pyridin-5-yl)pyridin-3-yl)benzamide] | 0.6 | 7.1 | 0
> 10 | > 10 | > 10 | c1cc(-c2ccnc3[nH]c(-c4n[nH]c5ccc(-c6cnccn6)nc45)nc23)ccn1 [Compound 584, 5-(Pyrazin-2-yl)-3-(7-(pyridin-4-yl)-3H-imidazo[4,5-b]pyridin-2-yl)-1H-pyrazolo[4,3-b]pyridine] | 10.8 | 8.5 | 22
> 10 | > 10 | > 10 | CC(C)C(=O)Nc1cncc(-c2ccc3[nH]nc(-c4nc5c(N6CCN(C)CC6)ccnc5[nH]4)c3n2)c1 [Compound 233, N-(5-(3-(7-(4-methylpiperazin-1-yl)-3H-imidazo[4,5-b]pyridin-2-yl)-1H-pyrazolo [4,3-b]pyridin-5-yl)pyridin-3-yl)isobutyramide] | 0 | 2.3 | 16.4
> 10 | > 10 | > 10 | c1cncc(-c2ccc3[nH]nc(-c4nc5cccnc5[nH]4)c3n2)c1 [Compound 256, 3-(3H-imidazo[4,5-b]pyridin-2-yl)-5-(pyridin-3-yl)-1H-pyrazolo[4,3-b]pyridine] | 22.2 | 43.4 | 24.4
> 10 | > 10 | > 10 | CC(C)(C)CC(=O)Nc1cncc(-c2ccc3[nH]nc(-c4nc5cccnc5[nH]4)c3n2)c1 [Compound 268, N-(5-(3-(3H-Imidazo[4,5-b]pyridin-2-yl)-1H-pyrazolo[4,3-b]pyridin-5-yl)pyridin-3-yl)-3,3-dimethylbutanamide] | 0 | 1.9 | 32.5
4.65 | > 10 | > 10 | CCC(=O)Nc1cncc(-c2ccc3[nH]nc(-c4nc5c(N6CCCCC6)ccnc5[nH]4)c3n2)c1 [Compound 169, N-(5-(3-(7-(piperidin-1-yl)-3H-imidazo[4,5-b]pyridin-2-yl)-1H-pyrazolo[4,3-b]pyridin-5-yl)pyridin-3-yl)propionamide] |  | 44.2 | 12.7
> 10 | > 10 | > 10 | O=C(CC1CCNCC1)Nc1cncc(-c2ccc3[nH]nc(-c4nc5c(-c6ccccn6)ccnc5[nH]4)c3n2)c1 [Compound 593, 2-(Piperidin-4-yl)-N-(5-(3-(7-(pyridin-2-yl)-3H-imidazo[4,5-b]pyridin-2-yl)-1H-pyrazolo[4,3-b]pyridin-5-yl)pyridin-3-yl)acetamide] | 16.7 | 29.3 | 41.8
> 10 | > 10 | > 10 | c1cc(-c2ccnc3[nH]c(-c4n[nH]c5ccc(-c6cncc(OC7CCNCC7)c6)nc45)nc23)ccn1 [Compound 576, 5-(5-(Piperidin-4-yloxy)pyridin-3-yl)-3-(7-(pyridin-4-yl)-3H-imidazo[4,5-b]pyridin-2-yl)-1H-pyrazolo[4,3-b]pyridine] | 1.7 | 8.9 | 38.1
> 10 | > 10 | > 10 | COc1cccc(-c2ccnc3[nH]c(-c4n[nH]c5ccc(-c6cncc(OC7CCNCC7)c6)nc45)nc23)c1 [Compound 1025, 3-(7-(3-Methoxyphenyl)-3H-imidazo[4,5-b]pyridin-2-yl)-5-(5-(piperidin-4-yloxy)pyridin-3-yl)-1H-pyrazolo[4,3-b]pyridine] | 15.8 | 39.2 | 26.5
> 10 | > 10 | > 10 | Cc1cn(-c2ccnc3[nH]c(-c4n[nH]c5ccc(-c6cncc(NC(=O)C(C)(C)C)c6)nc45)nc23)cn1 [Compound 204, N-(5-(3-(7-(4-methyl-1H-imidazol-1-yl)-3H-imidazo[4,5-b]pyridin-2-yl)-1H-pyrazolo[4,3-b]pyridin-5-yl)pyridin-3-yl)pivalamide] | 0 | 12.2 | 36.3
> 10 | > 10 | 2.12 | Nc1cncc(-c2ccc3[nH]nc(-c4nc5c(-c6ccccc6F)ccnc5[nH]4)c3n2)c1 [Compound 59, 5-(3-(7-(2-fluorophenyl)-3H-imidazo[4,5-b]pyridin-2-yl)-1H-pyrazolo[4,3-b]pyridin-5-yl)pyridin-3-amine] | 21.5 | 46.5 | 
4.19 | 2.82 | > 10 | Cc1ncc(-c2ccc3[nH]nc(-c4nc5c(-c6ccoc6)ccnc5[nH]4)c3n2)n1C [Compound 685, 5-(1,2-Dimethyl-1H-imidazol-5-yl)-3-(7-(furan-3-yl)-3H-imidazo[4,5-b]pyridin-2-yl)-1H-pyrazolo[4,3-b]pyridine] |  |  | 24.3
> 10 | > 10 | > 10 | CCCCC(=O)Nc1cncc(-c2ccc3[nH]nc(-c4nc5c(-c6ccccn6)ccnc5[nH]4)c3n2)c1 [Compound 159, N-(5-(3-(7-(pyridin-2-yl)-3H-imidazo[4,5-b]pyridin-2-yl)-1H-pyrazolo[4,3-b]pyridin-5-yl)pyridin-3-yl)pentanamide] | 6.7 | 12.6 | 33.6
> 10 | > 10 | > 10 | Cn1cc(-c2ccc3[nH]nc(-c4nc5c(-c6ccc(F)cc6)ccnc5[nH]4)c3n2)c(CO)n1 [Compound 1129, (4-(3-(7-(4-Fluorophenyl)-3H-imidazo[4,5-b]pyridin-2-yl)-1H-pyrazolo[4,3-b]pyridin-5-yl)-1-methyl-1H-pyrazol-3-yl)methanol] | 16.9 | 14.8 | 24.8
> 10 | > 10 | 7.92 | O=C(Nc1cncc(-c2ccc3[nH]nc(-c4nc5c(-c6ccccc6F)ccnc5[nH]4)c3n2)c1)C1CCCC1 [Compound 78, N-(5-(3-(7-(2-fluorophenyl)-3H-imidazo[4,5-b]pyridin-2-yl)-1H-pyrazolo [4,3-b]pyridin-5-yl)pyridin-3-yl)cyclopentanecarboxamide] | 12.3 | 39.4 | 
> 10 | > 10 | > 10 | CCCC(=O)Nc1cncc(-c2ccc3[nH]nc(-c4nc5c(-c6cc(F)cc(CNS(C)(=O)=O)c6)ccnc5[nH]4)c3n2)c1 [Compound 493, N-(5-(3-(7-(3-fluoro-5-(methylsulfonamidomethyl)phenyl)-3H-imidazo[4,5-b]pyridin-2-yl)-1H-pyrazolo[4,3-b]pyridin-5-yl)pyridin-3-yl)butyramide] | 3.9 | 14.8 | 23.4
> 10 | > 10 | > 10 | CN1CCN(c2ccnc3[nH]c(-c4n[nH]c5ccc(-c6cncc(N)c6)nc45)nc23)CC1 [Compound 227, 5-(3-(7-(4-methylpiperazin-1-yl)-3H-imidazo[4,5-b]pyridin-2-yl)-1H-pyrazolo[4,3-b]pyridin-5-yl)pyridin-3-amine] | 0 | 8.2 | 51.9

SMILES | EC50 (SW480 colon cancer cells) [µM] | EC50 [1] [µM] | EC50 (IL-6 (THP-1 cells)) [µM] | inhibition at 10 µM (SW480 colon cancer cells) [%] | inhibition at 10 µM [1] [%] | inhibition at 10 µM (IL-6 (THP-1 cells)) [%]
Cc1cn(-c2ccnc3[nH]c(-c4n[nH]c5ccc(C6=CCNCC6)nc45)nc23)cn1 [Compound 618, 3-(7-(4-Methyl-1H-imidazol-1-yl)-3H-imidazo[4,5-b]pyridin-2-yl)-5-(1,2,3,6-tetrahydropyridin-4-yl)-1H-pyrazolo[4,3-b]pyridine] | > 10 | > 10 | 1.55 | 2.8 | 8.7 | 
